melting point: 232 °C (dec.)
Structure (SMILES): COC(=O)C(=C(/C)c1ccc(C(=O)O)cc1)/C(=C\c1cccc(OC)c1)C(=O)Nc1ccnc(C)c1.Cl
